# Experimental data published in publication PMC8625559 (Pharmaceutics, 2021).
# Experiments:
# [1] = Stability in buffer solutions (LC/MS-MS method validation); type: physicochemical; conditions: spiked at 426 and 21.5 ng/mL
# Protocol: The specificity of the analytical method was controlled with blank (NaCl, 9 g/L) solution (Merck, Darmstadt Germany). The limit of quantitation (LoQ) was 2.43 ng/mL. Linearity was determined between the LoQ and 1000 ng/mL, with accuracy below ±15%, except at the LoQ, which was below ± 20%. Accuracy and precision were determined at least at two quality control (QC) theoretical concentrations: low (around 20 ng/mL) and middle (around 300 ng/mL). All QCs remained within the acceptance criteria (accuracy < ±15%). Matrix effects and stability in buffer solutions and buffer supplemented with pig skin were evaluated at two concentrations (426 and 21.5 ng/mL) in triplicate by spiking buffer solutions containing known amounts of chemical. […] A matrix effect was observed; therefore, all calibrations for this chemical were carried out in the matrix.
# [2] = parameters: method as in L'Oréal Laboratories; conditions: AH/A−; ref L'Oréal Laboratories; cited from earlier work
# [3] = Skin-PAMPA permeability of PER in different solvents; type: in vitro ADME
# Protocol: Skin PAMPA™ sandwiches and stirring bars (P/N: 110211) were supplied by Pion Inc™. UV plates (UV-star microplate, clear, flat bottom, half area) were from Greiner Bio-one™ (Kremsmünster, Austria). Membranes were hydrated overnight with standard hydration solution (Pion Inc™., product number 120706). […] The acceptor (lower) plate contained 180 μL Prisma buffer pH 7.4 and a magnetic stirrer in each well. The PAMPA™ sandwich was incubated at 32 °C in a Gut-Box™ (from Pion Inc™). Stirring bars were applied in every well to avoid the effect of the unstirred water layer. The acceptor solution was sampled after 7.5, 15, 30, 60, 120, 240 and 360 min incubation. After each individual incubation period, 150 µL from the acceptor compartment was transferred to UV plates. The acceptor phase was replaced with fresh buffer solution.
# The flux (J) was obtained as the slope of the permeability profile and expressed in µg/cm^2 × h units. For the linear regression analysis, the linear range of incubation period from 0 to 30 min was selected and used for calculation of flux of the model compound. Permeability coefficient Pm […] was calculated from the equation:Pm= J/CD(2) where CD is the donor phase concentration.
# [4] = logP by shake-flask method, octanol/water; type: physicochemical; conditions: 25.0 °C
# Protocol: Two parallel experiments were carried out. Four different phase ratios of octanol:water (1:50, 1:75, 1:100, 1:125) were applied. The equilibration time was 1 h (Lauda M2OS, shaking thermostat Königshofen, Germany), and the phases were separated by centrifugation. The concentration decrease in the sample in the aqueous phase was detected by UV spectroscopy (Jasco V-550 UV/VIS spectrophotometer, Easton, MD, USA) measuring the absorbance before and after the partition at λmax = 280 nm. The logP value was calculated from the equation:(1) logP=log[A0−A1/A1(Vaq/Voct)] where A0 and A1 represent the absorbance value at the absorption maximum of the compound in the aqueous phase before and after partition.
# [5] = Penetration kinetics across pig ear skin; type: in vitro ADME
# Protocol: Before use, hairs were shaved from the pig ear skin using an electric razor, and the skin thickness was adjusted between 700 and 1200 µm. This size range was achieved by cutting the dermis below hair follicle. The integrity of the skin was tested according to the Trans-Epidermal Water Loss (TEWL) method using a Delfin device.
# After topical application of the test chemical (infinite dose, 1.13 mL/cm^2), the concentration of the chemical in the receptor fluid was measured by sampling 200 µL of receptor fluid and replacing it with fresh fluid on an hourly basis, up to 16 h.
# The kinetic samples were directly injected into an LC/MS-MS system (Shimadzu Nexera LC system, Shimadzu, Kyoto, Japan) coupled with a mass spectrometer API 3500 (Sciex, Framingham, MA, USA). The analytical system was managed by Analyst v.1.6 software (Sciex, Framingham, MA, USA). The analytical column used was a Kinetex C18 from Phenomenex™ (Torrance, CA, USA) (50 × 2.0 mm, dp. 2.6 µm), and analysis was carried out with a gradient elution with mobile phases of 20 mM ammonium acetate (A) and acetonitrile (B). The column temperature was fixed at 50 °C, and the volume of the injection was 10 µL with a flow rate of 0.8 mL/min. The ionisation mode used was electrospray negative.
# The calculation was carried out using GraphPad PrismT v.7 (GraphPad Software Inc., San Diego, CA, USA).
# [6] = Skin-PAMPA membrane integrity study with piroxicam as model permeant; type: in vitro ADME; conditions: piroxicam from aqueous solution; membranes pre-treated 7 h with each of 13 solvents
# Protocol: Possible disruption by solvents of the integrity of the biomimetic artificial membrane was investigated. Wells were filled with each solvent and incubated over a longer (minimum 7 h) incubation time than the duration of the tests with the model solutions. The solvents were aspirated from the wells, and the residue from the surface of the membrane was removed gently with cotton paper. A standard skin permeability assay was then performed using piroxicam as the model permeant, for which precise previous data are available. The logPm values were compared with the reference value from untreated plates.
# [7] = parameters: method as in PMID 25957747; conditions: aqueous solution, untreated Skin-PAMPA plates; cited from earlier work
# [8] = PER in S2 Ethanol, CD 500 mg/mL
# [9] = PER in S4 Dimethylisosorbide, CD 70 mg/mL
# [10] = PER in S5 Water/ethanol 80:20 (w/w), CD 10 mg/mL
# [11] = PER in S6 Water/dimethylisosorbide 90:10 (w/w), CD 1 mg/mL
# [12] = PER in S7 Propylene glycol, CD 500 mg/mL
# [13] = PER in S8 Water:propylene glycol 80:20 (w/w), CD 10 mg/mL
# [14] = PER in S9 Water/propylenglycol/ethanol 10:30:60 (w/w/w), CD 500 mg/mL
# [15] = PER in S10 Capric/caprylic triglycerides, CD 70 mg/mL
# [16] = PER in S11 Octyl dodecanol, CD 1 mg/mL
# [17] = PER in S12 Apricot kernel oil, CD 1 mg/mL
# [18] = PER in S13 Corn oil, CD 1 mg/mL
# [19] = PER in S4 Dimethylisosorbide, CD 60 mg/mL
# [20] = PER in S5 Water/ethanol 80:20 (w/w), CD 8 mg/mL
# [21] = PER in S7 Propylene glycol, CD 350 mg/mL
# [22] = PER in S8 Water:propylene glycol 80:20 (w/w), CD 51 mg/mL
# [23] = PER in S10 Capric/caprylic triglycerides, CD 75 mg/mL
molecule,measurement,setting,value
4-phenylethyl-resorcinol [PER],stability in buffer solutions spiked with PER,[1],98.3 ± 7.0%
same,pKa,[2],9.77–10.77 (AH/A^−) ^2
same,J (flux),"[3]; PER in S1 Water, CD 1 mg/mL",72.4 ± 7.8 µg/cm^2 × h
same,Lag Time,"[3]; PER in S1 Water, CD 1 mg/mL",1.4 min
same,Permeated Amount (6 h),"[3]; PER in S1 Water, CD 1 mg/mL",169 ± 4 µg/cm^2
same,logPm,"[3]; PER in S1 Water, CD 1 mg/mL",−1.12 ± 0.06
same,J (flux),[3]; [8],"12,033 ± 252 µg/cm^2 × h"
same,Lag Time,[3]; [8],0.0 min
same,Permeated Amount (6 h),[3]; [8],"13,575 ± 1710 µg/cm^2"
same,logPm,[3]; [8],−1.62 ± 0.01
same,J (flux),"[3]; PER in S3 Glycerol, CD 5 mg/mL",137 ± 22 µg/cm^2 × h
same,Lag Time,"[3]; PER in S3 Glycerol, CD 5 mg/mL",5.5 min
same,Permeated Amount (6 h),"[3]; PER in S3 Glycerol, CD 5 mg/mL",869 ± 112 µg/cm^2
same,logPm,"[3]; PER in S3 Glycerol, CD 5 mg/mL",−1.57 ± 0.07
same,J (flux),[3]; [9],209 ± 53 µg/cm^2 × h
same,Lag Time,[3]; [9],3.6 min
same,Permeated Amount (6 h),[3]; [9],1342 ± 298 µg/cm^2
same,logPm,[3]; [9],−2.54 ± 0.13
same,J (flux),[3]; [10],589 ± 25 µg/cm^2 × h
same,Lag Time,[3]; [10],0.9 min
same,Permeated Amount (6 h),[3]; [10],1662 ± 169 µg/cm^2
same,logPm,[3]; [10],−1.23 ± 0.03
same,J (flux),[3]; [11],76.4 ± 15.2 µg/cm^2 × h
same,Lag Time,[3]; [11],0.0 min
same,Permeated Amount (6 h),[3]; [11],175 ± 22 µg/cm^2
same,logPm,[3]; [11],−1.13 ± 0.07
same,J (flux),[3]; [12],2118 ± 502 µg/cm^2 × h
same,Lag Time,[3]; [12],3.8 min
same,Permeated Amount (6 h),[3]; [12],"11,142 ± 729 µg/cm^2"
same,logPm,[3]; [12],−2.38 ± 0.11
same,J (flux),[3]; [13],570 ± 5 µg/cm^2 × h
same,Lag Time,[3]; [13],1.1 min
same,Permeated Amount (6 h),[3]; [13],1772 ± 98 µg/cm^2
same,logPm,[3]; [13],−1.24 ± 0.01
same,J (flux),[3]; [14],"10,846 ± 326 µg/cm^2 × h"
same,Lag Time,[3]; [14],1.4 min
same,Permeated Amount (6 h),[3]; [14],"14,926 ± 2431 µg/cm^2"
same,logPm,[3]; [14],−1.66 ± 0.01
same,J (flux),[3]; [15],377 ± 36 µg/cm^2 × h
same,Lag Time,[3]; [15],3.0 min
same,Permeated Amount (6 h),[3]; [15],749 ± 92 µg/cm^2
same,J (flux),[3]; [16],7.18 ± 1.6 µg/cm^2 × h
same,Lag Time,[3]; [16],3.9 min
same,Permeated Amount (6 h),[3]; [16],19 ± 0.4 µg/cm^2
same,J (flux),[3]; [17],2.45 ± 0.57 µg/cm^2 × h
same,Lag Time,[3]; [17],3.3 min
same,Permeated Amount (6 h),[3]; [17],13 ± 1.9 µg/cm^2
same,logPm,[3]; [17],−2.63 ± 0.07
same,J (flux),[3]; [18],3.26 ± 0.41 µg/cm^2 × h
same,Lag Time,[3]; [18],1.4 min
same,Permeated Amount (6 h),[3]; [18],13 ± 1.3 µg/cm^2
same,logPm,[3]; [18],−2.48 ± 0.06
same,calculated lag times,[3]; span over all 13 solvents,0 to 6 min
same,logP,[4],2.98 ^1
same,J (flux),"[5]; PER in S1 Water, CD 1 mg/mL",25 ± 9.6 µg/cm^2 × h
same,Permeated Amount (16 h),"[5]; PER in S1 Water, CD 1 mg/mL",261 ± 100 µg/cm^2
same,logKp,"[5]; PER in S1 Water, CD 1 mg/mL",−1.71 ± 0.32
same,Permeated Amount (16 h),"[5]; PER in S2 Ethanol, CD […]",98 ± 67 µg/cm^2
same,J (flux),[5]; [19],0.08 ± 0.024 µg/cm^2 × h
same,logKp,[5]; [19],−5.88 ± 0.19
same,J (flux),[5]; [20],61 ± 18 µg/cm^2 × h
same,Permeated Amount (16 h),[5]; [20],515 ± 203 µg/cm^2
same,logKp,[5]; [20],−1.97 ± 0.34
same,J (flux),[5]; [11],7.5 ± 3 µg/cm^2 × h
same,Permeated Amount (16 h),[5]; [11],100 ± 37 µg/cm^2
same,logKp,[5]; [11],−2.16 ± 0.26
same,J (flux),[5]; [21],20 ± 17.6 µg/cm^2 × h
same,Permeated Amount (16 h),[5]; [21],147 ± 120 µg/cm^2
same,logKp,[5]; [21],−4.24 ± 0.81
same,J (flux),[5]; [22],98 ± 50 µg/cm^2 × h
same,Permeated Amount (16 h),[5]; [22],516 ± 109 µg/cm^2
same,logKp,[5]; [22],−1.72 ± 0.34
same,Permeated Amount (16 h),"[5]; PER in S9 Water/propylenglycol/ethanol 10:30:60 (w/w/w), CD […]",320 ± 149 µg/cm^2
same,J (flux),[5]; [23],8 ± 3.5 µg/cm^2 × h
same,Permeated Amount (16 h),[5]; [23],54 ± 34 µg/cm^2
same,logKp,[5]; [23],−3.97 ± 0.29
CN1C(C(=O)Nc2ccccn2)=C(O)c2ccccc2S1(=O)=O [piroxicam],"logPm of piroxicam, mean across solvent-treated membranes",[6],−4.25 ± 0.30
same,reference logPm of piroxicam,[7],−4.98 ± 0.01
